From patent US20030180248A1, “Cosmetic composition containing the extract of mountain ginseng adventitious roots” (priority 2001, published 2003)

Tested on: transformed mouse fibroblast L929 cells
Assay: Cytotoxicity, Neutral Red uptake
Assay type: cell-based
Settings: 48 hours
Text: Extracts from tissue-cultured mountain ginseng adventitious roots, prepared in Examples 1 to 3, were examined for cytotoxicity, in comparison with a red ginseng extract and arbutin, which are conventionally used as skin-whitening materials.
After being recovered by trypsinization, the transformed mouse fibroblast L929 cells were suspended in DMEM supplemented with 2% BCS (bovine calf serum), and the suspension was aliquoted at a concentration of 2,500-3,000 cells/well into each well of 96 well tissue culture plates, followed by incubation at 37° C. for 48 hours in a 5% CO2 atmosphere. After substitution of the medium with a fresh, serum-free one, the cells were treated with the test materials shown in Table 2, below, and cultured for 48 hours. To each well, Neutral Red (50 μg/ml) was added, and reacted with cells for 3 hours. After completion of the accumulation of Neutral Red in live cells, the dye was fixed with the use of 1.0% formalin/1.0% CaCl2. Neutral Red was extracted from cells using 1.0% acetic acid/50% ethanol solution. The extracted Neutral Red was analyzed by ELISA to measure the cytotoxicity of the test materials according to concentrations.

OC[C@H]1O[C@@H](Oc2ccc(O)cc2)[C@H](O)[C@@H](O)[C@@H]1O [Arbutin]
NR50 (Neutral Red): 0.29 w/w % | Cytotoxicity (Neutral Red reading) (concentration 0.001 w/w %): 98 | Cytotoxicity (Neutral Red reading) (concentration 0.01 w/w %): 82 | Cytotoxicity (Neutral Red reading) (concentration 0.1 w/w %): 63 | Cytotoxicity (Neutral Red reading) (concentration 1 w/w %): 2
